Source: ChEMBL document CHEMBL1123809, “Amplification of bleomycin-mediated degradation of DNA” (J Med Chem, 1987)

What follows are compounds tested on Nucleic Acid (assay: Activity against DNA binding in calf thymus was determined). Conditions: Bos taurus.
Assay type: nucleic-acid assay

Row | SMILES | K [M⁻¹]
1 | CC[n+]1c(-c2ccccc2)c2cc(N)ccc2c2ccc(N)cc21 | 900000
2 | CN(C)CCSc1nccc(-c2ccc(-c3ccnc(SCCN(C)C)n3)s2)n1 | 1.3e+07
3 | CN(C)CCCN1C(=O)c2ccc3c4c(ccc(c24)C1=O)C(=O)N(CCCN(C)C)C3=O | > 1e+06
4 | CN(C)CCNc1nccc(-c2cccs2)n1 | 4400
5 | CN(C)CCSc1nccc(-c2cccs2)n1 | 18700
